In patent publication EP2719696A1, “NOVEL KINASE INHIBITORS” (Asinex Limited, priority 2011, dated 2012):

Columns and labels:
A2780 = assay: MTT proliferation / cytotoxicity assay; assay type: cell-based, human; conditions: Homo sapiens, A2780, 72 h
Procedure: (§1) Cell culture. The human cancer cell lines A172, A375, A2780 and U251 were purchased from the American Type Culture Collection. All cells were routinely maintained in DMEM containing 10% fetal bovine serum (Omega Scientific), at 37°C in 5% C02.
(§2) Proliferation assay Inhibition of cell A172, A375, A2780 and U251 cell proliferation was assessed by a MTT assay (MTT = Thiazolyl Blue Tetrazolium Bromide) . Cells were inoculated into 96-well microtiter plates containing 0.5% fetal calf serum and incubated at 37°C, 5% CO2, 95% air, and 100% relative humidity for 24 h prior to addition of testing compounds. Following compounds addition, the plates were incubated for an additional 72 h before processing to measure the cell population. Each compound was tested at eight different concentrations in triplicate, as was a control sample. Growth inhibition of 50% (IC50) is calculated by analysis of the data in Prizm3.4 software.
(§3) Table 8 lists IC50 values for inhibition of growth of several cancer cell lines, including the glioblastoma cell lines A172 and U251, measured in a MTT cytotoxicity assay. Table 8. Data of cytotoxicity assay (MTT) for several cancer cell lines, IC50 [µM]

U251 = assay: MTT proliferation / cytotoxicity assay; assay type: cell-based, human; conditions: Homo sapiens, U-251, 72 h, glioblastoma cell line
Procedure: as §1, §2, §3

A172 = assay: MTT proliferation / cytotoxicity assay; assay type: cell-based, human; conditions: Homo sapiens, A 172, 72 h, glioblastoma cell line
Procedure: as §1, §2, §3

A375 = assay: MTT proliferation / cytotoxicity assay; assay type: cell-based, human; conditions: Homo sapiens, A-375, 72 h
Procedure: as §1, §2, §3

PDGFR-α = PDGFR-α (Homo sapiens, UniProt P16234); assay: Kinase inhibition assay (ELISA); assay type: biochemical; conditions: 1 µM ATP
Procedure: (§4) To determine the interaction of our compounds with tyrosine kinases: PDGFR-α, cKIT, PDGFR-β, VEGFR-2 we used enzyme-linked immunosorbent assay (ELISA).
(§5) Determination plates preparation: The plates are processed by neutravidine for 2 h at 30°C. After washing thrice with TBS/0.1% Tween-20 and blocking with 1% BSA/TBS for 1 h at room temperature (RT) 96-well microtiter plates were washed thrice with TBS/0.1% Tween-20 again.
(§6) Reaction: After addition test compounds (in DMSO, DMSO final concentration - 5%) to reaction buffer (20 mM HEPES, pH 7.5, 15 mM MgCl2, 3 mM MnCl2, 2 mM DTT, 0.2 mM Na3VO4, 0.005% Triton X-100; PDGFR-α,: 0.05 µg/ml, 0.5 µg/ml Poly(G,T)-biotin; PDGFR-β: 0.05 µg/ml, 1 µg/ml Poly(G,T)-biotin; c-KIT: 0.03 µg/ml, 0.15 µg/ml Poly(G,T)-biotin; VEGFR-2: 0.07 µg/ml, 0.05 µg/ml Poly(G,T)-biotin) and preincubation of reaction for 10 min at RT and intensive agitation, ATP solution (PDGFR-α, - 1 µM, PDGFR-β - 0.5 µM, c-KIT - 60 µM, VEGFR-2: - 1.5 µM ATP in reaction buffer per well) was added to initiate reaction. Following incubation of mixture for 1 h at 30°C and intensive agitation the reaction was stopped by stop solution (20 mM HEPES, pH 7.5, 50 mM EDTA).
(§7) Kinase activity determination: The reaction mixture was transferred to determination plate. After mix incubation for 1 h at RT and intensive agitation the plates were washed thrice with TBS/0.1% Tween-20. Following mouse monoclonal 0.05 µg/ml Anti-p-Tyr (PY20) HRP antibodies (Santa Cruz Biotechnology) in PBS/BSA were added for 1 h at RT and intensive agitation. After washing, antibody binding was detected by tetramethylbenzidine (TMB) color development (Sigma). Measurement of A450 nm was carried out after addition of H2SO4

cKIT = cKIT (Homo sapiens, UniProt P10721); assay: Kinase inhibition assay (ELISA); assay type: biochemical; conditions: 60 µM ATP
Procedure: as §4, §5, §6, §7

VEGFR-2 = VEGFR-2 (Homo sapiens, UniProt P35968); assay: Kinase inhibition assay (ELISA); assay type: biochemical; conditions: 1.5 µM ATP
Procedure: as §4, §5, §6, §7

Chain of cKIT (P10721 26-976): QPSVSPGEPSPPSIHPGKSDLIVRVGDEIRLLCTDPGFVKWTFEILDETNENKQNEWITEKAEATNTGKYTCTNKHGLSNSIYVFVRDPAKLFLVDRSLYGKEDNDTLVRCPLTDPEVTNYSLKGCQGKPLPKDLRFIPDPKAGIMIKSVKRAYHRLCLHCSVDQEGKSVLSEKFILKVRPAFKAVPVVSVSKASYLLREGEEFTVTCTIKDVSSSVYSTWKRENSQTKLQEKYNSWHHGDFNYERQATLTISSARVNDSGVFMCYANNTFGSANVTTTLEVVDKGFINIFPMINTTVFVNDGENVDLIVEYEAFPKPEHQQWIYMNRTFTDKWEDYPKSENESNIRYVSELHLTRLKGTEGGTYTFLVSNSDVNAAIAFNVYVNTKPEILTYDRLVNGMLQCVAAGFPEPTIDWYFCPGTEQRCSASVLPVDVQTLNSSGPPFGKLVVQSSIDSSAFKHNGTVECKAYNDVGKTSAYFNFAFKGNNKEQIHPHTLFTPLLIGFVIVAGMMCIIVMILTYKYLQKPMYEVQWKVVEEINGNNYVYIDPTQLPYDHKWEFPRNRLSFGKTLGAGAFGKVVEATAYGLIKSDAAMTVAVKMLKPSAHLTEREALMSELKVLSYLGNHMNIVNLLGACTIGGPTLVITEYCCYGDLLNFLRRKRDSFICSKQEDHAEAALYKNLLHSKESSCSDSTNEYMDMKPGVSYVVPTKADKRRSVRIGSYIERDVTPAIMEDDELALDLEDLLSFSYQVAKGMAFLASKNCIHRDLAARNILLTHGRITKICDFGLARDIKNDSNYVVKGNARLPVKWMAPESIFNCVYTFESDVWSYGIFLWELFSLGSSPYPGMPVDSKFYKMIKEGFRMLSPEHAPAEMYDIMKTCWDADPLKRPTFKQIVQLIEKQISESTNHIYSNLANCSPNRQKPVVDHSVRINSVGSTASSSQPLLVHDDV
Chain of PDGFR-α (P16234 24-1089, species assumed): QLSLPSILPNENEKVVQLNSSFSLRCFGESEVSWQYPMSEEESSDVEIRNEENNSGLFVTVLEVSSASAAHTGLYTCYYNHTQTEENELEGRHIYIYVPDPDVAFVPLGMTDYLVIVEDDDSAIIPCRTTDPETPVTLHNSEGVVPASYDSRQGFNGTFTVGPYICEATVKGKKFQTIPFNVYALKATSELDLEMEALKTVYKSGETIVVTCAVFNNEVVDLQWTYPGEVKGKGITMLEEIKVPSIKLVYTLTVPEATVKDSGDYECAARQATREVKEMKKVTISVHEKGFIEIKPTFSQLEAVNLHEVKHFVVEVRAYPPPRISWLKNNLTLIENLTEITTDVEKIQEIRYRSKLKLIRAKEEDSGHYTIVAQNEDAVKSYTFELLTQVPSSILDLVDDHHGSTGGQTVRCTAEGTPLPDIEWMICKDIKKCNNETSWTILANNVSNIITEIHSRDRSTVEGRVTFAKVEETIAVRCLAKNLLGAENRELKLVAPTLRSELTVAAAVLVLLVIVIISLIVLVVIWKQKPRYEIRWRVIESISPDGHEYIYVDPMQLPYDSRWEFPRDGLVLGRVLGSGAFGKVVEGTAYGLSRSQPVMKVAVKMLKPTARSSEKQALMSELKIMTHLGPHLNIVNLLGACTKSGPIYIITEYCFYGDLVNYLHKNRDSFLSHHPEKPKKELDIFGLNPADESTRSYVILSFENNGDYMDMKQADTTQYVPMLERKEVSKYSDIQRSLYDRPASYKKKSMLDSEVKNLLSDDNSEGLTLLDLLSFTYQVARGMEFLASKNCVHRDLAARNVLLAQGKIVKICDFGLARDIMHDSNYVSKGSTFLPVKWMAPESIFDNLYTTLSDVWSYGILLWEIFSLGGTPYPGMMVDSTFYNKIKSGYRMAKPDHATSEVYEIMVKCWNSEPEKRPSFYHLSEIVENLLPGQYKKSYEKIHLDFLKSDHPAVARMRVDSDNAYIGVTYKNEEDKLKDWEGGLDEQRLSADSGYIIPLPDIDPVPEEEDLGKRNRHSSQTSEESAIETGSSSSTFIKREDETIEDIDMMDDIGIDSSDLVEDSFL
Chain of VEGFR-2 (P35968 20-1356, species assumed): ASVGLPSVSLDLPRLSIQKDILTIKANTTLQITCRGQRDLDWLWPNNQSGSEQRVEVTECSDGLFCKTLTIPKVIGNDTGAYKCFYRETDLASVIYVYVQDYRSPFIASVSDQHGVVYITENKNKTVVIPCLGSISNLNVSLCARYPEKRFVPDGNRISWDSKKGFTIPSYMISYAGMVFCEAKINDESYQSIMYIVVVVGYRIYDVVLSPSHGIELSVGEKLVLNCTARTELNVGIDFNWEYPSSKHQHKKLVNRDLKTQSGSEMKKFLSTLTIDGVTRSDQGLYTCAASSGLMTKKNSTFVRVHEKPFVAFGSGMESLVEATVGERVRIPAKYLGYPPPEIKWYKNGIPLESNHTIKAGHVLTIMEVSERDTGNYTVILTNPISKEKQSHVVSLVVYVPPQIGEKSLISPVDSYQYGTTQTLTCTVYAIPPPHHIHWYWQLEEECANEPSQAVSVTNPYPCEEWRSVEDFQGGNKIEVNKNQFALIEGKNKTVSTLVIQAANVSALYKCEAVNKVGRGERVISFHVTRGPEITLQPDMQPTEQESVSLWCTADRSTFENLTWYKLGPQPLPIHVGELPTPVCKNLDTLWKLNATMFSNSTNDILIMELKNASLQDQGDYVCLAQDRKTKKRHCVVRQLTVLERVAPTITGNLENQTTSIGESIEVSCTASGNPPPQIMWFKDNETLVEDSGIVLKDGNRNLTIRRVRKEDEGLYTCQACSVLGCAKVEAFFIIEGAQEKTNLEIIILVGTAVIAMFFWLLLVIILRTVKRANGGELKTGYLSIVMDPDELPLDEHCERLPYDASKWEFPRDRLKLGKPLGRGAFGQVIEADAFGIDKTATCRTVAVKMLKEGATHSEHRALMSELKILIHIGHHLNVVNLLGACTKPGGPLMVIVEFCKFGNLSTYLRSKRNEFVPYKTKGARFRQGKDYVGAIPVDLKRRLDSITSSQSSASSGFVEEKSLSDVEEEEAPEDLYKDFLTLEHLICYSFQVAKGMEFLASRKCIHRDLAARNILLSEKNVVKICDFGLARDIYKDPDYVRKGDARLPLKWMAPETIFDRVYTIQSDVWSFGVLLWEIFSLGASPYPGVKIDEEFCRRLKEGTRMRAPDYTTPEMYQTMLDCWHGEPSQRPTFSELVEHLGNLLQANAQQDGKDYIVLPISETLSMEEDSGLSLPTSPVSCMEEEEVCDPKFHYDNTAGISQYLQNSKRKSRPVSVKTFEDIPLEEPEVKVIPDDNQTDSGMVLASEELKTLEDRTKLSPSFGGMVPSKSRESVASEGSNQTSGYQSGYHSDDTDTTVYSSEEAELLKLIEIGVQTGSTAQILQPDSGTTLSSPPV

Row | Structure (SMILES) | IC50 (PDGFR-α) | IC50 (cKIT) | IC50 (VEGFR-2) | IC50 (A2780) | IC50 (U251) | IC50 (A172) | IC50 (A375)
1 | Fc1ccc(-c2cnc(Nc3cc(CC4CCNCC4)ccn3)s2)cc1 [Example 001, [5-(4-Fluoro-phenyl)-thiazol-2-yl]-(4-piperidin-4-ylmethyl-pyridin-2-yl)-amine] | < 10 nM | < 10 nM | > 10 nM | > 1 µM | > 1 µM | > 10 µM | > 1 µM
2 | CC(=O)N1CCC(Cc2ccnc(Nc3ncc(-c4ccc(F)cc4)s3)c2)CC1 [Example 002, 1-(4-{2-[5-(4-Fluoro-phenyl)-thiazol-2-ylamino]-pyridin-4-ylmethyl}-piperidin-1-yl)-ethanone] | < 10 nM | < 10 nM | > 10 nM | > 1 µM | > 10 µM | > 1 µM | > 1 µM
3 | CN1CCC(Cc2ccnc(Nc3ncc(-c4ccc(F)cc4)s3)c2)CC1 [Example 004, [5-(4-Fluoro-phenyl)-thiazol-2-yl]-[4-(1-methyl-piperidin-4-ylmethyl)-pyridin-2-yl]-amine] |  |  |  | > 1 µM | > 10 µM | > 1 µM | > 1 µM
4 | CN1CCOCC(Cc2ccnc(Nc3ncc(-c4ccc(F)cc4)s3)c2)C1 (stereo not drawn) [Example 010, [5-(4-Fluoro-phenyl)-thiazol-2-yl]-[4-(4-methyl-[1,4]oxazepan-6-ylmethyl)-pyridin-2-yl]-amine] |  |  |  | > 1 µM | > 10 µM | > 1 µM | > 1 µM
5 | c1ccc(-c2cnc(Nc3cc(CC4CCNC4)ccn3)s2)cc1 (stereo not drawn) [Example 014, (5-Phenyl-thiazol-2-yl)-(4-pyrrolidin-3-ylmethyl-pyridin-2-yl)-amine] | < 10 nM | > 10 nM | > 10 nM |  |  |  | 
6 | CNC1CCC(Cc2ccnc(Nc3ncc(-c4ccc(F)cc4)s3)c2)CC1 (stereo not drawn) [Example 016, [5-(4-Fluoro-phenyl)-thiazol-2-yl]-[4-(4-methylamino-cyclohexylmethyl)-pyridin-2-yl]-amine] | < 10 nM | < 10 nM | > 10 nM | > 1 µM |  | > 1 µM | 
7 | Fc1ccc(-c2cnc(Nc3cc(CC4CCC5CNCC54)ccn3)s2)cc1 (stereo not drawn) [Example 018, [5-(4-Fluoro-phenyl)-thiazol-2-yl]-[4-(octahydro-cyclopenta[c]pyrrol-4-ylmethyl)-pyridin-2-yl]-amine] | < 10 nM | < 10 nM | > 10 nM | > 1 µM |  | > 1 µM | 
8 | c1ccc(-c2cnc(Nc3cc(CC4CCCNCC4)ccn3)s2)cc1 (stereo not drawn) [Example 026, (4-Azepan-4-ylmethyl-pyridin-2-yl)-(5-phenyl-thiazol-2-yl)-amine] |  |  |  | ≤ 1 µM | > 10 µM | > 1 µM | > 1 µM
9 | OCCN1CCC(CO)(c2cccc(Nc3ncc(-c4ccccc4)s3)n2)CC1 [Example 042, 2-[4'-Hydroxymethyl-6-(5-phenyl-thiazol-2-ylamino)-3',4',5',6'-tetrahydro-2'H-[2,4']bipyridinyl-1'-yl]-ethanol] | > 100 nM | > 100 nM | > 10000 nM |  |  |  | 
10 | CN(C)CC1(c2cccc(Nc3ncc(-c4ccccc4)s3)n2)CCN(CCO)CC1 [Example 043, 2-[4'-Dimethylaminomethyl-6-(5-phenyl-thiazol-2-ylamino)-3',4',5',6'-tetrahydro-2'H-[2,4']bipyridinyl-1'-yl]-ethanol] | > 1000 nM | > 10000 nM | > 10000 nM |  |  |  | 
11 | CC(C)(C)OC(=O)N1CCC(c2cccc(Nc3ncc(C#CC4CC4)s3)n2)CC1 [Example 045, 6-(5-Cyclopro-pylethynyl-thiazol-2-ylamino)-3',4',5',6'-tetrahydro-2'H-[2,4']bipyridinyl-1'-carboxylic acid tert-butyl ester] | > 10000 nM | > 10000 nM | > 10 nM |  |  |  | 

Continued, in another order:

Row | IC50 (PDGFR-α) | IC50 (cKIT) | IC50 (VEGFR-2) | Structure (SMILES) | IC50 (A2780) | IC50 (U251) | IC50 (A172) | IC50 (A375)
12 | < 10 nM | < 10 nM | > 100 nM | Fc1ccc(-c2cnc(Nc3cccc(CC4CCC5CNCC54)n3)s2)cc1 (stereo not drawn) [Example 020, [5-(4-Fluoro-phenyl)-thiazol-2-yl]-[6-(octahydro-cyclopenta[c]pyrrol-4-ylmethyl)-pyridin-2-yl]-amine] | < 1 µM |  | ≤ 1 µM | 
13 | < 10 nM | > 10 nM | > 10 nM | Fc1ccc(-c2cnc(Nc3cccc(CC4COC5(CCNCC5)C4)n3)s2)cc1 (stereo not drawn) [Example 024, [5-(4-Fluoro-phenyl)-thiazol-2-yl]-[6-(1-oxa-8-aza-spiro[4.5]dec-3-ylmethyl)-pyridin-2-yl]-amine] | ≤ 1 µM |  | ≤ 1 µM | 
14 | < 10 nM | > 10 nM | > 10 nM | c1ccc(-c2cnc(Nc3cc(C4CCCN4)ccn3)s2)cc1 (stereo not drawn) [Example 027, (5-Phenyl-thiazol-2-yl)-(4-pyrrolidin-2-yl-pyridin-2-yl)-amine] |  |  |  | 
15 | > 10 nM | < 10 nM | > 100 nM | Cc1cc(Nc2ncc(-c3ccccc3)s2)nc(C2CCN(CCO)CC2)n1 [Example 029, 2-{4-[4-Methyl-6-(5-phenyl-thiazol-2-ylamino)-pyrimidin-2-yl]-piperidin-1-yl}-ethanol] | ≤ 1 µM | > 1 µM | ≤ 1 µM | 
16 | > 10 nM | > 100 nM | > 100 nM | OCCN1CCC(c2cncc(Nc3ncc(-c4ccccc4)s3)n2)CC1 [Example 030, 2-{4-[6-(5-Phenyl-thiazol-2-ylamino)-pyrazin-2-yl]-piperidin-1-yl}-ethanol] |  |  |  | 
17 | < 10 nM | > 10 nM | > 10 nM | Cc1nc(Nc2ncc(-c3ccccc3)s2)cc(C2CCN(C(=O)C(C)(C)N)CC2)n1 [Example 031, 2-Amino-2-methyl-1-{4-[2-methyl-6-(5-phenyl-thiazol-2-ylamino)-pyrimidin-4-yl]-piperidin-1-yl}-propan-1-one] | > 1 µM | > 10 µM | > 1 µM | 
18 |  | > 100 nM |  | CCCc1cnc(Nc2cccc(C3CCN(C(=O)C(C)(C)N)CC3)n2)s1 [Example 041, 2-Amino-2-methyl-1-[6-(5-propyl-thiazol-2-ylamino)-3',4',5',6'-tetrahydro-2'H-[2,4']bipyridinyl-1'-yl]-propan-1-one] | ≤ 1 µM |  |  | > 1 µM
19 | < 10 nM | > 10 nM | > 100 nM | OCCN1CCC(c2cccc(Nc3ncc(-c4ccnc(Cl)c4)s3)n2)CC1 [Example 046, 2-{6-[5-(2-Chloro-pyridin-4-yl)-thiazol-2-ylamino]-3',4',5',6'-tetrahydro-2'H-[2,4']bipyridinyl-1'-yl}-ethanol] |  |  |  | 
20 | > 100 nM | > 1000 nM | > 100 nM | CC(C)(C)Cc1cnc(Nc2cccc(C3CCN(C(=O)C(C)(C)N)CC3)n2)s1 [Example 047, 2-Amino-1-{6-[5-(2,2-dimethylpropyl)-thiazol-2-ylamino]-3',4',5',6'-tetrahydro-2'H-[2,4']bipyridinyl-1'-yl}-2-methyl-propan-1-one] | ≤ 1 µM |  |  | > 1 µM
21 | > 10 nM | > 1000 nM | > 100 nM | OCCN1CCC(c2ccnc(Nc3ncc(/C=C/c4ccccc4)s3)c2)CC1 [Example 048, 2-{2'-[5-((E)-Styryl)-thiazol-2-ylamino]-3,4,5,6-tetrahydro-2H-[4,4']bipyridinyl-1-yl}-ethanol] |  |  |  | 
